One assay deals with full-length human SYK (Homo sapiens (Human), UniProt P43405). The assay is described as follows: Inhibition of enzymatic SYK kinase activity (LANCE Ulight TK peptide). The assay is classed as biochemical. The protocol:
Compounds of the present invention were assayed to measure their capacity to inhibit a spleen tyrosine kinase (SYK).
Compounds of the invention were initially diluted to 10 mM in 100% DMSO (CALBIOCHEM™) for storage and made into kinase buffer solution to create a compound concentration ranging from 1 uM and 10 uM. Serial dilutions of compounds of the invention were dispensed into a 96-well plate (GREINER BIOSCIENCES™) at 6 μL each. Purified full-length human SYK (CARNA BIOSCIENCES™) were diluted in kinase buffer and added to the compound solutions and pre-incubated for 30 minutes at room temperature. […] The reaction mixture was incubated for 1 hour. Following the incubation, the stop solution made with EDTA, water, and Lance detection buffer ([…]™) was added (12 μL each) to stop phosphorylation.
For orientation: Time-resolved FRET reads energy transfer from a long-lived donor to a nearby acceptor.

Assay [1] has as its system Collagen-induced arthritis in DBA/1J mice. The assay is described as follows: Collagen-induced arthritis (CIA) mouse model, macroscopic paw scoring. The assay is classed as in vivo. To be noted: 30 mg/kg/day once daily oral gavage, vehicle = 100.0. Here is the method: CIA mouse model was induced in DBA/1J mice (Japan Charles River Breeding Laboratories, Kanagawa, Japan) with 5 to 6 weeks of age. Animals were maintained at a temperature of 20±5° C. and a relative humidity of 40˜60%.
Bovine type II collagen (CII, 2 mg/ml dissolved in 0.05 M acetic acid, Chondrex, Redmond, Wash.) was emulsified in equal volumes of Freund's complete adjuvant (4 mg/ml of Mycobacterium tuberculosis strain H37Ra; Chondrex, Redmond, Wash.). On day 0, mice were immunized intradermally at the base of the tail with 100 μg bovine type II collagen emulsified in Freund's complete adjuvant. On day 21, all mice were boosted with an intraperitoneal injection of 100 μg type II collagen.
These compounds were dissolved in NMP/20% cyclodextrin/PEG400 5:45:50 solution and filtered by […] membrane filter. All the test substances were administered once daily at 30 mg/kg/day by oral gavage for 3 weeks.
The gradual onset of arthritis usually starts approximately 3 weeks after initial immunization. The progression of CIA was evaluated by the macroscopic scoring of paws at intervals of 3 days. The edema and swelling of each paw was scored visually as was described previously, using a scale of 0-4, where 0=no visible abnormalities, 1=mild redness or swelling of the wrist or up to three inflamed digits, 2=more than three inflamed digits or moderate redness and swelling of the ankle or wrist, 3=severe ankle and wrist inflammation, 4=extensive ankle and wrist inflammation including all digits. Therefore, the score of each mouse was calculated for the four limbs (maximum total score of 16 for each mouse) (Courtenay J S, Dallman M J, Dayan A D, et al., Immunisation against heterologous type II collagen induces arthritis in mice, Nature, 1980, 283, 666-668)
Arthritis was considered to be present if the score was >2. The blind scoring was performed by four independent observers. In this study, data was calculated by following equation. […] Results

The test system of a further assay is THP-1 cells. The assay is described as follows: SYK-dependent TNF-α release assay (IgG stimulation), ELISA. To be noted: THP-1 cells on human IgG-coated plate, 18 hours; read-out: TNF-α release inhibition, IgG stimulation IC50. The assay is classed as cell-based. The protocol: In order to address cellular potency of Compounds of Formula (I), TNF-a production was measured on treatment of a series of concentration of SYK inhibitor in THP-1 cells.
For SYK-dependent TNF-α release assay (i.e., via IgG stimulation), THP-1 cells derived from human monocytic cells were obtained from the American Type Culture Collection (ATCC, Manassas, Va.). This cell line was maintained with a Roswell Park Memorial Institute (RPMI) medium (GIBCO) containing 10% fetal bovine serum (FBS; GIBCO) and 0.05 mM solution of 2-mercaptoethanol. The THP-1 cells were seeded at 1×10^5 cells/100 μL/well into human IgG (10 ng/well, INVITROGEN)-coated 96 well culture plate, and serially diluted compound was then added. After an 18 hours of incubation period at 37° C., supernatants were collected for the determination of the TNF-α level by enzyme-linked immunosorbent assay (ELISA), and the remaining cells were subjected to an MTT (yellow tetrazolium salt) assay to determine the cytotoxic effects of the compound. The IC50 value of the test compound was calculated at Gradpad Prism 5 unless otherwise specified.

[2] abbreviates: ATP at Km (15 uM), 30 min pre-incubation.

From patent US9212178B2, “Substituted pyrimidine compounds and their use as SYK inhibitors” (Genosco, priority 2013, dated 2015) come the findings set out here.

Where two headings read alike, the source gives them in different places.

The IC50 is the concentration needed to halve the response being measured.

For the molecule `CCn1cc(C(=O)C2CC2)c2cc(Nc3nccc(-n4cc(CN5C[C@H](O)CO5)c(C)n4)n3)ccc21` [Compound 6, (S)-cyclopropyl(1-ethyl-5-(4-(4-((4-hydroxyisoxazolidin-2-yl)methyl)-3-methyl-1H-pyrazol-1-yl)pyrimidin-2-ylamino)-1H-indol-3-yl)methanone], the IC50 against full-length human SYK (setting [2]) is 4.69 nM; in the assay with THP-1 cells it was 57 nM. The “CIA index (arthritic score of test group / vehicle group x 100)” value in assay [1] (day 4) is given as 0.0 ± 0.0%; in assay [1] (day 7), 10.9 ± 8.9%; in assay [1] (day 10), 32.3 ± 11.5%; in assay [1] (day 13), 45.3 ± 10.5%; in assay [1] (day 17), 53.3 ± 7.4%; in assay [1] (day 19) it was 63.4 ± 4.0%.
Take `Cc1nn(-c2ccnc(Nc3ccc4c(c3)c(C(=O)C3CC3)cn4CCF)n2)cc1CN1C[C@H](O)CO1` [Compound 23, (S)-cyclopropyl(1-(2-fluoroethyl)-5-(4-(4-((4-hydroxyisoxazolidin-2-yl)methyl)-3-methyl-1H-pyrazol-1-yl)pyrimidin-2-ylamino)-1H-indol-3-yl)methanone]: the IC50 on full-length human SYK (setting [2]) stood at 3.71 nM; in the assay with THP-1 cells, 111 nM.
For `CCn1cc(C(=O)C2CC2)c2cc(Nc3nccc(-n4cc(CN5C[C@H](O)CO5)c(C5CC5)n4)n3)ccc21` [Compound 25, (S)-cyclopropyl(5-(4-(3-cyclopropyl-4-((4-hydroxyisoxazolidin-2-yl)methyl)-1H-pyrazol-1-yl)pyrimidin-2-ylamino)-1-ethyl-1H-indol-3-yl)methanone], in that order: 5.85 nM and 465 nM.
For `Cc1nn(-c2ccnc(Nc3ccc4c(c3)c(S(C)(=O)=O)nn4C)n2)cc1CN1C[C@H](O)CO1` [Compound 26, (S)-2-((3-methyl-1-(2-(1-methyl-3-(methylsulfonyl)-1H-indazol-5-ylamino)pyrimidin-4-yl)-1H-pyrazol-4-yl)methyl)isoxazolidin-4-ol] the same measures were 87.1 nM and 1060 nM.
For `Cc1nn(-c2ccnc(Nc3ccc4c(c3)c(C(=O)C3CC3)cn4S(C)(=O)=O)n2)cc1CN1C[C@H](O)CO1` [Compound 27, (S)-cyclopropyl(5-(4-(4-((4-hydroxyisoxazolidin-2-yl)methyl)-3-methyl-1H-pyrazol-1-yl)pyrimidin-2-ylamino)-1-(methylsulfonyl)-1H-indol-3-yl)methanone], in that order: 5.89 nM and 43 nM.
`CCn1cc(C(=O)C2CC2)c2cc(Nc3nccc(-n4cc(C)c(CN5C[C@H](O)CO5)c4)n3)ccc21` [Compound 29, (S)-cyclopropyl(1-ethyl-5-(4-(3-((4-hydroxyisoxazolidin-2-yl)methyl)-4-methyl-1H-pyrrol-1-yl)pyrimidin-2-ylamino)-1H-indol-3-yl)methanone]: the IC50 against full-length human SYK came out at 69.5 nM; with THP-1 cells it was 70 nM.
With `O=C(c1cn(CCF)c2ccc(Nc3nccc(-n4cc(CN5C[C@H](O)CO5)cn4)n3)cc12)C1CC1` [Compound 32, (S)-cyclopropyl(1-(2-fluoroethyl)-5-(4-(4-((4-hydroxyisoxazolidin-2-yl)methyl)-1H-pyrazol-1-yl)pyrimidin-2-ylamino)-1H-indol-3-yl)methanone], the figures for the IC50 on full-length human SYK (setting [2]) and in the assay on THP-1 cells were 3.52 nM and 53 nM, respectively.
In the case of `O=C(c1cn(CC(F)F)c2ccc(Nc3nccc(-n4cc(CN5C[C@H](O)CO5)cn4)n3)cc12)C1CC1` [Compound 33, (S)-cyclopropyl(1-(2,2-difluoroethyl)-5-(4-(4-((4-hydroxyisoxazolidin-2-yl)methyl)-1H-pyrazol-1-yl)pyrimidin-2-ylamino)-1H-indol-3-yl)methanone], the 50% inhibitory concentration (IC50) on full-length human SYK (setting [2]) was 5.34 nM; in the assay with THP-1 cells it was 60 nM.
For `O=C(c1cn(CC(F)(F)F)c2ccc(Nc3nccc(-n4cc(CN5C[C@H](O)CO5)cn4)n3)cc12)C1CC1` [Compound 34, (S)-cyclopropyl(5-(4-(4-((4-hydroxyisoxazolidin-2-yl)methyl)-1H-pyrazol-1-yl)pyrimidin-2-ylamino)-1-(2,2,2-trifluoroethyl)-1H-indol-3-yl)methanone] the same measures were 5.8 nM and 55 nM.
With `COc1cc(Nc2ncc(F)c(Nc3ccc4c(n3)N(COP(=O)(O)O)C(=O)C(C)(C)O4)n2)cc(OC)c1OC` [Compound R788, reference compound], the “CIA index (arthritic score of test group / vehicle group x 100)” value turned out to be 36.7 ± 22.7% in assay [1] (day 4); 82.2 ± 45.2% in assay [1] (day 7); 80.3 ± 27.3% in assay [1] (day 10); 97.8 ± 25.0% in assay [1] (day 13); 73.3 ± 11.2% in assay [1] (day 17); 72.1 ± 11.2% in assay [1] (day 19).
Turning to “cyclopropyl(1-(2-fluoroethyl)-5-(4-(4-(((S)-4-hydroxyisoxazolidin-2-yl)methyl)-3-methyl-1H-pyrazol-1-yl)pyrimidin-2-ylamino)indolin-3-yl)methanone [Compound 24]”, the half-inhibitory concentration (IC50) was determined as 3.1 nM against full-length human SYK (setting [2]) and 47 nM with THP-1 cells.
